Several values for one entry are separate records, joined by “and”; a condition that tells them apart may be missing. Equal entries are not always repeated.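 Assay format: 96-well plates, 48-hour exposure. GI50 = concentration required for 50% inhibition of growth. At the TGI there is no net growth.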
Columns and labels:
Test in all cases: inhibition of tumour cell growth, NCI panel, 48 h
UACC-62 melanoma = tested on: UACC-62 melanoma
UACC-257 melanoma = tested on: UACC-257 melanoma
CCRF-CEM leukemia = tested on: CCRF-CEM leukemia
HOP-92 NSCLC = tested on: HOP-92 NSCLC
SF-539 CNS = tested on: SF-539 CNS
M14 melanoma = tested on: M14 melanoma
RPMI-8226 leukemia = tested on: RPMI-8226 leukemia
OVCAR-5 ovarian = tested on: OVCAR-5 ovarian
T-47D breast = tested on: T-47D breast
MCF7 breast = tested on: MCF7 breast

Row | Compound | TGI (UACC-62 melanoma) [µM] | TGI (UACC-257 melanoma) | TGI (CCRF-CEM leukemia) [µM] | TGI (HOP-92 NSCLC) [µM] | TGI (SF-539 CNS) [µM] | TGI (M14 melanoma) | TGI (RPMI-8226 leukemia) [µM] | TGI (OVCAR-5 ovarian) | GI50 (UACC-62 melanoma) [µM] | GI50 (UACC-257 melanoma) [µM] | GI50 (CCRF-CEM leukemia) [µM] | GI50 (T-47D breast) [µM] | TGI (T-47D breast) [µM] | GI50 (SF-539 CNS) [µM] | GI50 (M14 melanoma) [µM] | GI50 (RPMI-8226 leukemia) [µM] | GI50 (OVCAR-5 ovarian) | GI50 (MCF7 breast) [µM] | TGI (MCF7 breast) | GI50 (HOP-92 NSCLC) [µM]
1 | Cc1nnc2n1N=C(c1ccccc1)C(c1ccccc1)S2 (configuration not stated) | > 100 | > 100 µM | 77.1 | > 100 | 72.4 | 46.5 µM | > 100 | > 100 µM | – | – | – | – | – | – | – | – | – | – | – | –
2 | COC(=O)C1CC(c2ccc(OC)c(OC)c2)OC1=O (mixture of isomers) | > 100 | > 100 µM | > 100 | > 100 | > 100 | > 100 µM | > 100 | > 100 µM | – | – | – | – | – | – | – | – | – | – | – | –
3 | COC1(OC)C2(Cl)C3=CCCC=C3C1(Cl)C(Cl)=C2Cl | > 100 | 75.1 µM | 42.4 | 70.1 | > 100 | 31.4 µM | 34 | 83.9 µM | – | – | – | – | – | – | – | – | – | – | – | –
4 | Cc1cc(Cl)ccc1NC(=O)CCCC(=O)C1C/C(=N/O)CC/C1=N\O (configuration not stated) | > 100 | > 100 µM | > 100 | > 100 | > 100 | > 100 µM | > 100 | > 100 µM | – | – | – | – | – | – | – | – | – | – | – | –
5 | CN1CCN(C2=NC(=O)/C(=C\c3ccc(N(C)C)cc3)S2)CC1 | > 100 | > 100 µM | > 100 | – | > 100 | > 100 µM | > 100 | > 100 µM | 91.7 | > 100 | 38.4 | 36.7 | > 100 | > 100 | 3.79 | 32.5 | > 100 µM | > 100 | > 100 µM | –
6 | Cn1c(=O)oc2cc(C3CCC(=O)N3Cc3csc(-c4ccccc4)n3)ccc21 (configuration not stated) | > 100 | > 100 µM | > 100 | – | > 100 | > 100 µM | > 100 | > 100 µM | – | – | – | – | – | – | – | – | – | – | – | –
7 | Cc1cc(=O)[nH]c(NNC(C#N)c2cccc([N+](=O)[O-])c2)n1 (configuration not stated) | > 100 | > 100 µM | > 100 | > 100 | > 100 | > 100 µM | > 100 | > 100 µM | – | – | – | – | – | – | – | – | – | – | – | –
8 | CC(=O)[CH-]C(C)=O.CC(=O)[CH-]C(C)=O.[O-]c1ccccc1.[O-]c1ccccc1.[Ti+4] | > 100 | > 100 µM | > 100 | > 100 | > 100 | – | > 100 | > 100 µM | > 100 | > 100 | > 100 | – | – | > 100 | – | > 100 | > 100 µM | – | – | > 100
9 | OCC(O)C(O)C(O)C(/C=N\Nc1ncnc2c(Br)cc(Br)cc12)=N/Nc1ncnc2c(Br)cc(Br)cc12 (configuration not stated) | – | 33.2 µM and > 100 µM | – | – | 33.9 | 28.3 µM and 44.2 µM | > 100 | 46.1 µM and > 100 µM | – | – | – | – | – | – | – | 19.6 | 5.83 µM and 41.2 µM | – | 37.4 µM and > 100 µM | –
10 | Cc1cccc(N2C(=O)/C(=C/C(Cl)=C/c3ccc([N+](=O)[O-])cc3)SC2=S)c1C | 3.86 | – | > 89.5 | – | 6.76 | 6.86 µM | 2.04 | 5.67 µM | 1.7 | – | 0.741 | 2.7 | > 100 | 2.37 | 2.39 | 0.439 | 2.43 µM | 0.786 | > 100 µM | –
11 | CCCCCCCC/C=C/CCCCCCCC1=NC(C)(C)CN1C(C)(C)CO | 3.47 | 3.54 µM | 11.4 | – | 3.34 | 3.22 µM | 5.68 | 5.09 µM | 1.82 | 1.76 | 3.04 | 3.39 | 11.8 | 1.68 | 1.78 | 2.55 | 2.15 µM | 1.82 | 3.43 µM | –
12 | Cc1ccc(C2=CC(=O)c3ccccc3C2=O)n1-c1ccccc1 | > 100 | – | 84.5 | – | > 100 | > 100 µM | > 100 | – | – | – | – | – | – | – | – | – | – | – | – | –
13 | O=c1[nH]ccc(CNC23CC4CC(CC(C4)C2)C3)c1O | > 100 | > 100 µM | > 100 | – | > 100 | > 100 µM | > 100 | > 100 µM | – | – | – | – | – | – | – | – | – | – | – | –
14 | CN1CCCC2[C@@H]3CCC4c5nonc5CC[C@]4(C)C3CC[C@@]21C (some centres not stated) | > 100 | > 100 µM | – | – | > 100 | – | > 100 | > 100 µM | – | – | – | – | – | – | – | – | – | – | – | –
15 | c1cnc2c(c1)-n1cccc1C1(CCCCC1)NN2 | – | > 100 µM | > 100 | – | > 100 | > 100 µM | > 100 | > 100 µM | – | – | – | – | – | – | – | – | – | – | – | –
16 | CCC[CH2][Sn-]([CH2]CCC)([CH2]CCC)[O]C(=O)C(C)C | 0.424 | 0.265 µM | – | 0.162 | 0.296 | 0.23 µM | 0.366 | 0.262 µM | 0.2 | 0.135 | – | – | – | 0.157 | 0.109 | 0.109 | 0.107 µM | – | – | 0.037
17 | O=c1c2cccnc2ncn1CCCN1CCCCC1 | > 100 | – | > 100 | > 100 | > 100 | > 100 µM | – | > 100 µM | – | – | – | – | – | – | – | – | – | – | – | –
18 | C/C(=N/NC(=S)Nc1ccccc1)c1nc2ccc(Cl)cc2[nH]1 | 0.425 | 0.85 µM | 7.18 | 1.52 | 0.686 | 0.26 µM | 3.36 | – | 0.126 | 0.236 | 0.039 | 0.292 | 1.56 | 0.129 | 0.0763 | 0.202 | – | – | – | 0.585
19 | O=c1c(Cc2ccccc2)c(O)cc2n1CCC2 | > 100 | > 100 µM | > 100 | > 100 | > 100 | > 100 µM | > 100 | > 100 µM | – | – | – | – | – | – | – | – | – | – | – | –
20 | CC(C)(C)C#COC(=O)c1ccccc1 | > 100 | > 100 µM | > 100 | – | > 100 | > 100 µM | > 100 | > 100 µM | – | – | – | – | – | – | – | – | – | – | – | –
21 | O=C1CC23CCCCCCCCCCC2(C1)CC(=O)C3 (configuration not stated) | – | > 100 µM | 44.4 | 51.8 | > 100 | 44.4 µM | 45.4 | 72.1 µM | – | – | – | – | – | – | – | – | – | – | – | –

Reference: PubChem BioAssay (NCI)
